In ChEMBL document CHEMBL3045841, “Novel diamide insecticides: sulfoximines, sulfonimidamides and other new sulfonimidoyl derivatives” (Bioorg Med Chem Lett, 2012):
Converted amounts (≈) assume the structure as drawn. The source made the active and inactive calls. The calls are words filed in the database; no cut-off is given here.

Key:
Myzus persicae = assay: Insecticidal activity against Myzus persicae (green peach aphid) assessed as mortality by greenhouse assay; format: functional
Plutella xylostella = assay: Insecticidal activity against Plutella xylostella (diamondback moth) assessed as mortality by greenhouse assay; format: functional
[1] = Aqueous solubility of the compound at pH 7; format: physicochemical; conditions: buffer
Spodoptera littoralis [2] = assay: Insecticidal activity against Spodoptera littoralis assessed as mortality by greenhouse assay; format: functional
[3] = Lipophilicity, log P of the compound; format: physicochemical; conditions: octanol/water
Spodoptera frugiperda = assay: Insecticidal activity against Spodoptera frugiperda (fall armyworm) in maize assessed as control of pests measured after 12 to 22 days of seed application; format: functional, organism-based
Agrotis ipsilon = assay: Insecticidal activity against Agrotis ipsilon in maize assessed as control of pests measured after 12 to 22 days of seed application; format: functional, organism-based
Phyllotreta striolata = assay: Insecticidal activity against Phyllotreta striolata in radish assessed as control of pests measured after 12 to 22 days of seed application; format: functional, organism-based
Spodoptera littoralis [4] = assay: Insecticidal activity against Spodoptera littoralis in maize assessed as control of pests measured after 12 to 22 days of seed application; format: functional, organism-based
Liriomyza trifolii = assay: Insecticidal activity against Liriomyza trifolii in kidney beans assessed as control of pests measured after 12 to 22 days of seed application; format: functional, organism-based

Structure (SMILES) | EC80 (Myzus persicae) [µg/mL] | EC80 (Plutella xylostella) [µg/mL] | solubility [1] [ppm] | EC80 (Spodoptera littoralis [2]) [µg/mL] | logP [3] | Activity (Spodoptera frugiperda) | Activity (Agrotis ipsilon) | Activity (Phyllotreta striolata) | Activity (Spodoptera littoralis [4]) | Activity (Liriomyza trifolii)
Cc1cc(C(F)(C(F)(F)F)C(F)(F)F)ccc1NC(=O)c1cccc(I)c1C(=O)NC(C)(C)CS(C)(=O)=O [FLUBENDIAMIDE] | > 200 | 3.1 (≈ 4.54 µM) | 0.3 | 3.1 (≈ 4.54 µM) |  |  |  |  |  | 
Cc1cc(Cl)cc(C(=O)NC(C)(C)CS(C)(=O)=NC#N)c1NC(=O)c1cc(C(F)(F)F)nn1-c1ncccc1Cl (centres undefined) | 200 (≈ 324 µM) | 0.8 (≈ 1.3 µM) | 14 | 0.8 (≈ 1.3 µM) | 2.9 |  |  |  |  | 
CNC(=O)c1cc(C#N)cc(C)c1NC(=O)c1cc(Br)nn1-c1ncccc1Cl [CYANTRANILIPROLE] | 12.5 (≈ 26.4 µM) | 0.8 (≈ 1.69 µM) | 14 | 3.1 (≈ 6.54 µM) | 1.9 |  |  |  |  | 
Cc1cc(C#N)cc(C(=O)NC(C)(C)CS(C)(=N)=O)c1NC(=O)c1cc(OCC(F)(F)F)nn1-c1ncccc1Cl (centres undefined) | 3.1 (≈ 5.07 µM) | 0.2 (≈ 0.327 µM) | 361 | 0.8 (≈ 1.31 µM) | 1.6 |  |  |  |  | 
Cc1cc(C#N)cc(C(=O)NC(C)(C)CS(C)(=O)=N[N+](=O)[O-])c1NC(=O)c1cc(Br)nn1-c1ncccc1Cl (centres undefined) | 200 (≈ 314 µM) | 0.8 (≈ 1.25 µM) | 29 | 12.5 (≈ 19.6 µM) | 1.9 |  |  |  |  | 
Cc1cc(Cl)cc(C(=O)NC(C)(C)CS(C)(=N)=O)c1NC(=O)c1cc(OCC(F)(F)F)nn1-c1ncccc1Cl (centres undefined) | 12.5 (≈ 20.1 µM) | 0.2 (≈ 0.322 µM) | 295 | 0.8 (≈ 1.29 µM) | 2.4 | Active | Active | Active | Active | Active
CNS(=N)(=O)CC(C)NC(=O)c1cc(Cl)cc(C)c1NC(=O)c1cc(Br)nn1-c1ncccc1Cl (centres undefined) | 200 (≈ 331 µM) | 3.1 (≈ 5.14 µM) | 95 | 12.5 (≈ 20.7 µM) | 2 |  |  |  |  | 
CN=S(=O)(CC(C)NC(=O)c1cc(C#N)cc(C)c1NC(=O)c1cc(Br)nn1-c1ncccc1Cl)NN(C)C (centres undefined) | 12.5 (≈ 19.6 µM) | 12.5 (≈ 19.6 µM) | 48 | 50 (≈ 78.5 µM) | 2.1 |  |  |  |  | 
Cc1cc(C#N)cc(C(=O)NC(C)(C)CS(C)(=O)=NC#N)c1NC(=O)c1cc(Br)nn1-c1ncccc1Cl (centres undefined) | 200 (≈ 324 µM) | 0.8 (≈ 1.29 µM) | 59 | 50 (≈ 80.9 µM) | 1.7 |  |  |  |  | 
CNS(=N)(=O)CC(C)NC(=O)c1cc(C#N)cc(C)c1NC(=O)c1cc(Br)nn1-c1ncccc1Cl (centres undefined) | 200 (≈ 337 µM) | 12.5 (≈ 21 µM) | 96 | 50 (≈ 84.2 µM) | 1.1 |  |  |  |  | 
CN=S(=O)(CC(C)NC(=O)c1cc(C#N)cc(C)c1NC(=O)c1cc(Br)nn1-c1ncccc1Cl)NOC (centres undefined) | > 200 | 3.1 (≈ 4.97 µM) | 17 | 50 (≈ 80.1 µM) | 1.8 |  |  |  |  | 
Cc1cc(Cl)cc(C(=O)NC(C)(C)CS(C)(=N)=O)c1NC(=O)c1cc(C(F)(F)F)nn1-c1ncccc1Cl (centres undefined) | 50 (≈ 84.5 µM) | 0.8 (≈ 1.35 µM) | 196 | 0.8 (≈ 1.35 µM) | 2.4 | Active | Active | Active | Active | Active
Cc1cc(C#N)cc(C(=O)NC(C)(C)CS(C)(=N)=O)c1NC(=O)c1cc(Br)nn1-c1ncccc1Cl (centres undefined) | 12.5 (≈ 21.1 µM) | 0.8 (≈ 1.35 µM) | 42 | 0.8 (≈ 1.35 µM) | 1.1 |  |  |  |  | 
CNC(=O)c1cc(Cl)cc(C)c1NC(=O)c1cc(Br)nn1-c1ncccc1Cl [CHLORANTRANILIPROLE] | 50 (≈ 103 µM) | 0.8 (≈ 1.66 µM) | 1 | 0.8 (≈ 1.66 µM) | 2.8 |  |  |  |  | 
